Laboratory results published in US10584115B2, “Substituted pyridine and pyrazine BMI-1 inhibitors” (PTC Therapeutics, Inc., priority 2013, dated 2020).
Where two headings read alike, the source gives them in different places.

Tests used:
Bmi-1 protein = assay: Sandwich ELISA Assay (Bmi-1 protein level in HT-1080 cells after compound treatment); type: cell-based
Summary of the method: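 Sandwich ELISA quantified Bmi-1 protein against recombinant standard (125–8000 pg/mL), with lysates captured overnight at 4 °C and signal by HRP/TMB at 450 nm (570 nm reference). Lysates came from HT-1080 cells incubated 40–48 h with test compounds in 0.5% DMSO.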

[1] = read-out: ELISA EC50 value for Bmi-1 protein, Table 1, Bmi-1 sandwich ELISA
[2] = Table 1, Bmi-1 sandwich ELISA, read-out: ELISA EC50 value for Bmi-1 protein

Row | SMILES | melting point | EC50 (Bmi-1 protein; [2]) | EC50 (Bmi-1 protein; [1])
1 | CS(=O)(=O)c1ccc(Nc2cncc(-c3c(C(F)(F)F)nc4ccccn34)n2)cc1 [compound 68, N-[4-(methylsulfonyl)phenyl]-6-[2-(trifluoromethyl)imidazo[1,2-a]pyridin-3-yl]pyrazin-2-amine] | 256 to 258 °C |  | 100 to 3000 nM
2 | Cc1csc(Nc2cncc(-c3c(C(F)(F)F)nc4ccccn34)n2)n1 [compound 96, N-(4-methyl-1,3-thiazol-2-yl)-6-[2-(trifluoromethyl)imidazo[1,2-a]pyridin-3-yl]pyrazin-2-amine] | 317 to 319 °C | 100 to 3000 nM | 
3 | FC(F)(F)c1ccc(Nc2cncc(-c3cccc4nc(C5CCC5)cn34)n2)cc1 [compound 114, 6-(2-cyclobutylimidazo[1,2-a]pyridin-5-yl)-N-[4-(trifluoromethyl)phenyl]pyrazin-2-amine] | 288 to 290 °C | 100 to 3000 nM | 
4 | FC1(F)Oc2ccc(Nc3cncc(-c4cccc5nc(C6CCC6)cn45)n3)cc2O1 [compound 117, 6-(2-cyclobutylimidazo[1,2-a]pyridin-5-yl)-N-(2,2-difluoro-1,3-benzodioxol-5-yl)pyrazin-2-amine] | 302 to 305 °C | 100 to 3000 nM | 
5 | Cc1noc(C)c1-c1cncc(Nc2ccc(C(F)(F)F)cc2)n1 [compound 127, 6-(3,5-dimethyl-1,2-oxazol-4-yl)-N-[4-(trifluoromethyl)phenyl]pyrazin-2-amine] | 208 to 210 °C |  | 10 to 100 nM
6 | COc1ccc(Nc2cc(C)cc(-n3c(C)nc4ccccc43)n2)cc1 [compound 655, N-(4-methoxyphenyl)-4-methyl-6-(2-methyl-1H-benzimidazol-1-yl)pyridin-2-amine] |  | 100 to 3000 nM | 
7 | Cc1nc2ccccc2n1-c1cncc(Nc2ccc(C(C)(C)C)cc2)n1 [compound 659, N-(4-tert-butylphenyl)-6-(2-methyl-1H-benzimidazol-1-yl)pyrazin-2-amine] |  | 100 to 3000 nM | 
8 | CCc1ccc(Nc2cncc(-n3c(C)nc4ccccc43)n2)cc1 [compound 662, N-(4-ethylphenyl)-6-(2-methyl-1H-benzimidazol-1-yl)pyrazin-2-amine] |  | 100 to 3000 nM | 
9 | CCOc1ccc(Nc2cncc(-n3c(C)nc4ccccc43)n2)cc1 [compound 664, N-(4-ethoxyphenyl)-6-(2-methyl-1H-benzimidazol-1-yl)pyrazin-2-amine] |  | 100 to 3000 nM | 
10 | C#Cc1ccc(Nc2cncc(-n3c(C)nc4ccccc43)n2)cc1 [compound 665, N-(4-ethynylphenyl)-6-(2-methyl-1H-benzimidazol-1-yl)pyrazin-2-amine] |  | 100 to 3000 nM | 
11 | C=Cc1ccc(Nc2cncc(-n3c(C)nc4ccccc43)n2)cc1 [compound 666, N-(4-ethenylphenyl)-6-(2-methyl-1H-benzimidazol-1-yl)pyrazin-2-amine] |  | 100 to 3000 nM | 
12 | Fc1ccc2nc(C(F)(F)F)c(-c3cncc(Nc4ccccc4)n3)n2c1 [compound 667, 6-[6-fluoro-2-(trifluoromethyl)imidazo[1,2-a]pyridin-3-yl]-N-phenylpyrazin-2-amine] |  | 100 to 3000 nM | 
13 | N#Cc1ccc(Nc2cncc(-c3c(C(F)(F)F)nc4ccc(F)cn34)n2)cc1 [compound 668, 4-({6-[6-fluoro-2-(trifluoromethyl)imidazo[1,2-a]pyridin-3-yl]pyrazin-2-yl}amino)benzonitrile] |  | 100 to 3000 nM | 
14 | Fc1ccc(Nc2cncc(-c3c(C(F)(F)F)nc4ccc(F)cn34)n2)cc1 [compound 669, N-(4-fluorophenyl)-6-[6-fluoro-2-(trifluoromethyl)imidazo[1,2-a]pyridin-3-yl]pyrazin-2-amine] |  | 100 to 3000 nM | 
15 | Fc1ccc2nc(C(F)(F)F)c(-c3cncc(Nc4ccc(Cl)cc4)n3)n2c1 [compound 670, N-(4-chlorophenyl)-6-[6-fluoro-2-(trifluoromethyl)imidazo[1,2-a]pyridin-3-yl]pyrazin-2-amine] |  | 100 to 3000 nM | 
16 | Cc1ccc(Nc2cncc(-c3c(C(F)(F)F)nc4ccc(F)cn34)n2)cc1 [compound 671, 6-[6-fluoro-2-(trifluoromethyl)imidazo[1,2-a]pyridin-3-yl]-N-(4-methylphenyl)pyrazin-2-amine] |  | 100 to 3000 nM | 
17 | COc1ccc2nc(C)c(-c3cc(C#N)cc(Nc4ccc(C)cc4)n3)n2c1 [compound 673, 2-(6-methoxy-2-methylimidazo[1,2-a]pyridin-3-yl)-6-[(4-methylphenyl)amino]pyridine-4-carbonitrile] |  | 100 to 3000 nM | 
18 | COc1ccc2nc(C)c(-c3cc(C#N)cc(Nc4ccc(F)cc4)n3)n2c1 [compound 674, 2-[(4-fluorophenyl)amino]-6-(6-methoxy-2-methylimidazo[1,2-a]pyridin-3-yl)pyridine-4-carbonitrile] |  | 100 to 3000 nM | 
19 | COc1ccc2nc(C)c(-c3cc(C#N)cc(Nc4ccc(OC(F)F)cc4)n3)n2c1 [compound 677, 2-{[4-(difluoromethoxy)phenyl]amino}-6-(6-methoxy-2-methylimidazo[1,2-a]pyridin-3-yl)pyridine-4-carbonitrile] |  | 100 to 3000 nM | 

Second part, led by results:

Row | melting point | EC50 (Bmi-1 protein; [2]) | SMILES | EC50 (Bmi-1 protein; [1])
20 | 142 to 143 °C | 1 to 10 nM | CCn1nc(C)c(-c2cncc(Nc3ccc(OC(F)(F)F)cc3)n2)c1C [compound 84, 6-(1-ethyl-3,5-dimethyl-1H-pyrazol-4-yl)-N-[4-(trifluoromethoxy)phenyl]pyrazin-2-amine] | 
21 | 225 to 227 °C | 100 to 3000 nM | FC(F)(F)Oc1ccc(Nc2cncc(-c3cccc4nc(C5CC5)cn34)n2)cc1 [compound 87, 6-(2-cyclopropylimidazo[1,2-a]pyridin-5-yl)-N-[4-(trifluoromethoxy)phenyl]pyrazin-2-amine] | 
22 | 266 to 268 °C | 100 to 3000 nM | FC(F)(F)c1ccc(Nc2cncc(-c3cccc4nc(C5CC5)cn34)n2)cc1 [compound 89, 6-(2-cyclopropylimidazo[1,2-a]pyridin-5-yl)-N-[4-(trifluoromethyl)phenyl]pyrazin-2-amine] | 
23 | 232 to 234 °C | 100 to 3000 nM | FC1(F)Oc2ccc(Nc3cncc(-c4c(C(F)(F)F)nc5ccccn45)n3)cc2O1 [compound 91, N-(2,2-difluoro-1,3-benzodioxol-5-yl)-6-[2-(trifluoromethyl)imidazo[1,2-a]pyridin-3-yl]pyrazin-2-amine] | 
24 | 139 to 140 °C | 10 to 100 nM | COc1ccc(Nc2cccc(-c3c(C(F)(F)F)nc4ccc(OC)cn34)n2)cc1 [compound 104, N-(4-methoxyphenyl)-6-[6-methoxy-2-(trifluoromethyl)imidazo[1,2-a]pyridin-3-yl]pyridin-2-amine] | 
25 | 252 to 253 °C | 10 to 100 nM | FC(F)Oc1ccc(Nc2cncc(-c3cccc4nc(C5CCC5)cn34)n2)cc1 [compound 115, 6-(2-cyclobutylimidazo[1,2-a]pyridin-5-yl)-N-[4-(difluoromethoxy)phenyl]pyrazin-2-amine] | 
26 | 223 to 225 °C | 10 to 100 nM | COc1ccc(Nc2cncc(-c3cccc4nc(C5CCC5)cn34)n2)cc1 [compound 116, 6-(2-cyclobutylimidazo[1,2-a]pyridin-5-yl)-N-(4-methoxyphenyl)pyrazin-2-amine] | 
27 | 201 to 202 °C | 1 to 10 nM | Cc1nn(C)c(C)c1-c1cncc(Nc2ccc(C(F)(F)F)cc2)n1 [compound 128, N-[4-(trifluoromethyl)phenyl]-6-(1,3,5-trimethyl-1H-pyrazol-4-yl)pyrazin-2-amine] | 
28 |  | 10 to 100 nM | Cc1nc2ccc(F)cc2n1-c1cncc(Nc2ccc(Cl)c(F)c2)n1 [compound 654, N-(4-chloro-3-fluorophenyl)-6-(6-fluoro-2-methyl-1H-benzimidazol-1-yl)pyrazin-2-amine] | 
29 |  | 10 to 100 nM | COc1ccc(Nc2cc(N)cc(-n3c(C)nc4cc(F)c(F)cc43)n2)cc1 [compound 656, 6-(5,6-difluoro-2-methyl-1H-benzimidazol-1-yl)-N^2-(4-methoxyphenyl)pyridine-2,4-diamine] | 
30 |  | 10 to 100 nM | Cc1ccc(Nc2cc(N)cc(-n3c(C)nc4cc(F)c(F)cc43)n2)cc1 [compound 657, 6-(5,6-difluoro-2-methyl-1H-benzimidazol-1-yl)-N^2-(4-methylphenyl)pyridine-2,4-diamine] | 
31 |  | 10 to 100 nM | Cc1nc2cc(F)c(F)cc2n1-c1cc(N)cc(Nc2ccc(Cl)cc2)n1 [compound 658, N^2-(4-chlorophenyl)-6-(5,6-difluoro-2-methyl-1H-benzimidazol-1-yl)pyridine-2,4-diamine] | 
32 |  | 10 to 100 nM | Cc1nc2ccccc2n1-c1cncc(Nc2ccc(OC(C)C)cc2)n1 [compound 660, 6-(2-methyl-1H-benzimidazol-1-yl)-N-[4-(propan-2-yloxy)phenyl]pyrazin-2-amine] | 
33 |  | 10 to 100 nM | Cc1nc2ccccc2n1-c1cncc(Nc2ccc(C(C)C)cc2)n1 [compound 661, 6-(2-methyl-1H-benzimidazol-1-yl)-N-[4-(propan-2-yl)phenyl]pyrazin-2-amine] | 
34 |  | 10 to 100 nM | CCCc1ccc(Nc2cncc(-n3c(C)nc4ccccc43)n2)cc1 [compound 663, 6-(2-methyl-1H-benzimidazol-1-yl)-N-(4-propylphenyl)pyrazin-2-amine] | 
35 |  | 10 to 100 nM | COc1ccc2nc(C)c(-c3cc(C#N)cc(Nc4ccccc4)n3)n2c1 [compound 675, 2-(6-methoxy-2-methylimidazo[1,2-a]pyridin-3-yl)-6-(phenylamino)pyridine-4-carbonitrile] | 
36 |  | 10 to 100 nM | COc1ccc2nc(C)c(-c3cc(C#N)cc(Nc4ccc(Cl)cc4)n3)n2c1 [compound 676, 2-[(4-chlorophenyl)amino]-6-(6-methoxy-2-methylimidazo[1,2-a]pyridin-3-yl)pyridine-4-carbonitrile] | 
37 |  | 10 to 100 nM | Cc1nc2cc(F)c(F)cc2n1-c1cncc(Nc2ccc(C(F)(F)F)cc2)n1 [compound 683, 6-(5,6-difluoro-2-methyl-1H-benzimidazol-1-yl)-N-[4-(trifluoromethyl)phenyl]pyrazin-2-amine] | 
